This passage reports IC50 and inhibition results from US7202239B2, “Cyclohexylphenyl carboxamides tocolytic oxytocin receptor antagonists” (Wyeth, priority 2001, dated 2007).

In the assay the target is T1, human oxytocin receptor (Homo sapiens, UniProt P30559).
T1 sequence (P30559 1-389): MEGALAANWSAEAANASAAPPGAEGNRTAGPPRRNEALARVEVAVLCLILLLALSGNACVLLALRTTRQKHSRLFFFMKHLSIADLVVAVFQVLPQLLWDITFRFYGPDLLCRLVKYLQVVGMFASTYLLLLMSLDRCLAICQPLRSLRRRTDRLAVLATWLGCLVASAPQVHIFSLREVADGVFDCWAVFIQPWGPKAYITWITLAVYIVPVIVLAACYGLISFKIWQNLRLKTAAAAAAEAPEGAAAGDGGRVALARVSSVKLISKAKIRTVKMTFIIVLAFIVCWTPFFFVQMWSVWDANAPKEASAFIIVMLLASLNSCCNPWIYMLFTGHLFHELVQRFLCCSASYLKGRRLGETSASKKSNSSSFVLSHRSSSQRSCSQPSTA
The experiment in a line: Oxytocin binding in CHO cell membranes expressing human oxytocin receptors. The conditions noted are these: [3H]oxytocin; for inhibition at 0.1 µM: 100 nM, read-out: OT % inhibition at 100 nM. Put shortly: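 Radioligand competition binding on membranes from CHO cells stably expressing the human receptor, in 50 mM Tris-HCl pH 7.4 with BSA, MgCl2 and protease inhibitors. Test compounds added in 50% DMSO at final 0.1–1000 nM; 1000 nM unlabeled oxytocin defined non-specific binding.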

Each structure is given as a SMILES string.

As for `NNC(=O)c1ccc2n1Cc1ccccc1N(C(=O)c1ccc(C3CCCCC3)cc1)C2` [Example 8, 10-(4-Cyclohexy-benzoyl)-10,11-dihydro-5H-pyrrolo[2,1-c][1,4]benzodiazepine-3-carboxylic acid hydrazide], for the setting “value in parentheses, read-out: OT (IC50)”, the IC50 – broadly, the point on the concentration scale where inhibition reaches its midpoint – amounted to 127 nM.
For `CC(C)N1CCN(C(=O)c2ccc3n2Cc2ccccc2N(C(=O)c2ccc(C4CCCCC4)cc2)C3)CC1` [Example 44, [10-(4-Cyclohexyl-benzoyl)-10,11-dihydro-5H-pyrrolo[2,1-c][1,4]benzodiazepin-3-yl](4-isopropyl-1-piperazinyl)methanone], the inhibition (as a rule, how much of the control response was suppressed) at 0.1 µM was 2%.
On the same count and under the same terms, under `O=C(c1ccc2n1Cc1ccccc1N(C(=O)c1ccc(C3CCCCC3)cc1)C2)N1CCN(CCN2CCOCC2)CC1` [Example 42, [10(4-Cyclohexyl-benzoyl)-10,11-dihydro-5H-pyrrolo[2,1-c][1,4]benzodiazepin-3-yl]{4-[2-(4-morpholinyl)ethyl]-1-piperazinyl}methanone] stands 65%.
With `O=C(NNC(=O)c1ccc2n1Cc1ccccc1N(C(=O)c1ccc(C3CCCCC3)cc1)C2)Nc1ccccc1` [Example 15, 2-{[10-(4-Cyclohexyl-benzoyl)-10,11-dihydro-5H-pyrrolo[2,1-c][1,4]benzodiazepin-3-yl]carbonyl}-N-phenyl-1-hydrazinecarboxamide], the inhibition at 0.1 µM amounted to 16%.
